Data set [1] deals with S. aureus (ATCC #29213) cells. Briefly: Membrane depolarization assay (DiOC2(3), flow cytometry). Type of data set: cell-based. To be noted: positive control, 10 μL of 500 μM in 1 mL. How it is done: S. aureus (ATCC #29213) cells were grown to log phase (14 h) in Mueller Hinton Broth cation-adjusted (MHB50) and were diluted to 0.07 OD600 with media. One mL aliquots were transferred to 1.5 mL centrifuge tubes and treated with the following in triplicate: 10 μL DMSO (control), 10 μL of 600 μg/mL ecteinamycin, 10 μL of 3.2 mg/mL ecteinamycin (1), 10 μL of 500 μM carbonyl cyanide m-chlorophenythydrazone (CCCP), and 10 μL of 3.2 mg/mL rifampicin. Additionally, each tube received 10 μL of 3 mM DiOC2(3) (3,3′-diethyloxacarbocyanine iodide). The tubes were shaken for 15 minutes at room temperature. The cells were then analyzed with a FACSCalibur (BD Biosciences) flow cytometer and CellQuestPro software (BD Biosciences). Collected data represent the geometric means of fluorescence of 40,000 gated events.
Flow cytometry was used to determine if ecteinamycin, like other polyether ionophore antibiotics, depolarizes cell membranes. 3,3′-diethyloxacarbocyanine iodide (“DiOC2(3)”) fluoresces green in bacterial cells but shifts to red when the cell membrane is depolarized. Therefore, the ratio of red to green fluorescence is indicative of the membrane potential. S. aureus ATCC […] cells were treated with ecteinamycin at concentrations of 6 and 32 μg/mL.
All cells except the DMSO negative control were treated with DiOC2(3) and analyzed by flow cytometry. […]
Background: A flow cytometer gives signals particle by particle.

A further data set relates to C. difficile. To be noted: reported; cited from earlier work.
Another data set has as its system MSSA (ATCC #29213). The experiment in a line: MIC, dilution antimicrobial susceptibility test. The class given is cell-based, Methicillin-sensitive Staphylococcus aureus. To be noted: Staphylococcus aureus, 18 h. On the procedure:
(§1) Ecteinamycin was tested for antibacterial activity against C. difficile (ATCC BAA-1870), MRSA (ATCC #33591), MSSA (ATCC #29213), E. coli (ATCC #25922), P. aeruginosa (ATCC #27853), and VRE (ATCC), and MICs were determined using a dilution antimicrobial susceptibility test for aerobic (MRSA, MSSA, E. coli, P. aeruginosa, and VRE) and anaerobic (C. difficile) bacteria. Ecteinamycin was dissolved in DMSO, serially diluted to 10 concentrations (0.0313-32 μg/mL), and tested in a 96-well plate. […] Ecteinamycin and vancomycin were tested in triplicate. Six untreated media controls were included on each plate. For MRSA, MSSA, E. coli, and P. aeruginosa, the plates were incubated at 33° C. for 18 h. For C. difficile, the plate was incubated at 36° C. for 48 h anaerobically and then read visually using a mirror apparatus. All manipulations to the plate were done inside the anaerobe chamber. The MIC was determined as the lowest concentration that inhibited visible growth.

The test system of the next data set is MRSA (ATCC #33591). Briefly: MIC, dilution antimicrobial susceptibility test. Type of data set: cell-based, Methicillin-resistant Staphylococcus aureus. To be noted: Staphylococcus aureus, 18 h. On the procedure:
as §1

For data set [2] the following is noted: in vivo; cited from earlier work.

≈ marks a conversion by molar mass, not a printed value.

For the compound `N#CC(C#N)=NNc1cccc(Cl)c1` [CCCP, carbonyl cyanide m-chlorophenylhydrazone, reference compound], in data set [1], the “membrane depolarization (ratio of red to green fluorescence)” value is recorded as “membrane depolarization to a greater extent than ecteinamycin”.

Regarding `CO[C@@H]1C[C@@H](C[C@H]2CC[C@H](C)[C@H]([C@@H](C)C(=O)O)O2)O[C@]2(O[C@](C)([C@H]3CC[C@@](C)([C@@H]4O[C@@H]([C@H]5O[C@@](O)(CO)[C@H](C)C[C@@H]5C)C[C@@H]4C)O3)C[C@H]2C)[C@@H]1C` [Nigericin], the MIC in the data set with C. difficile was 0.0025 µg/mL (≈ 0.00345 µM).

Consider `CN[C@H](CC(C)C)C(=O)N[C@H]1C(=O)N[C@@H](CC(N)=O)C(=O)N[C@H]2C(=O)N[C@H]3C(=O)N[C@H](C(=O)N[C@H](C(=O)O)c4cc(O)cc(O)c4-c4cc3ccc4O)[C@H](O)c3ccc(c(Cl)c3)Oc3cc2cc(c3O[C@@H]2O[C@H](CO)[C@@H](O)[C@H](O)[C@H]2O[C@H]2C[C@](C)(N)[C@H](O)[C@H](C)O2)Oc2ccc(cc2Cl)[C@H]1O` [Vancomycin, reference compound], for which the MIC in the data set with MSSA (ATCC #29213) and in the data set on MRSA (ATCC #33591) was 1 µg/mL (≈ 0.69 µM) in each case.

As to `CC[C@@]1([C@@H]2O[C@@H]([C@H]3O[C@@](O)(CO)[C@H](C)C[C@@H]3C)C[C@@H]2C)CC[C@H]([C@]2(C)CC[C@]3(C[C@H](O)[C@@H](C)[C@@H]([C@@H](C)[C@@H](OC)[C@H](C)C(=O)O)O3)O2)O1` [monensin], in the data set on C. difficile, the MIC is 0.5 µg/mL (≈ 0.745 µM). Moreover, in data set [2], the oral bioavailability is 30%.

The MIC is the smallest concentration in the dilution series that meets the test's criterion for growth inhibition.

(Values after US10660874B2, “Ecteinamycin, compositions and uses thereof” (Wisconsin Alumni Research Foundation, priority 2014, dated 2020).)
